Reference: ChEMBL document CHEMBL6182920, “The Discovery of C7-Substituted Norbornyl Bisamides as RXFP1 Small Molecule Agonists” (J Med Chem, 2025)
Converted amounts (≈) assume the structure as drawn.

Key:
[1] = Microsomal stability in rat liver microsomes assessed as compound remaining measured after 30 mins; type: ADME, Microsome; settings: read-out: Stability
Relaxin receptor 1 [2] = molecular target: T1, Relaxin receptor 1 (Mus musculus, UniProt Q6R6I7); assay: Partial agonist activity at mouse RXFP1 expressed in HEK293 cells assessed as intracellular cAMP accumulation incubated for 30 mins by HTRF assay; type: functional, cell-based
T1 sequence (Q6R6I7 whole entry): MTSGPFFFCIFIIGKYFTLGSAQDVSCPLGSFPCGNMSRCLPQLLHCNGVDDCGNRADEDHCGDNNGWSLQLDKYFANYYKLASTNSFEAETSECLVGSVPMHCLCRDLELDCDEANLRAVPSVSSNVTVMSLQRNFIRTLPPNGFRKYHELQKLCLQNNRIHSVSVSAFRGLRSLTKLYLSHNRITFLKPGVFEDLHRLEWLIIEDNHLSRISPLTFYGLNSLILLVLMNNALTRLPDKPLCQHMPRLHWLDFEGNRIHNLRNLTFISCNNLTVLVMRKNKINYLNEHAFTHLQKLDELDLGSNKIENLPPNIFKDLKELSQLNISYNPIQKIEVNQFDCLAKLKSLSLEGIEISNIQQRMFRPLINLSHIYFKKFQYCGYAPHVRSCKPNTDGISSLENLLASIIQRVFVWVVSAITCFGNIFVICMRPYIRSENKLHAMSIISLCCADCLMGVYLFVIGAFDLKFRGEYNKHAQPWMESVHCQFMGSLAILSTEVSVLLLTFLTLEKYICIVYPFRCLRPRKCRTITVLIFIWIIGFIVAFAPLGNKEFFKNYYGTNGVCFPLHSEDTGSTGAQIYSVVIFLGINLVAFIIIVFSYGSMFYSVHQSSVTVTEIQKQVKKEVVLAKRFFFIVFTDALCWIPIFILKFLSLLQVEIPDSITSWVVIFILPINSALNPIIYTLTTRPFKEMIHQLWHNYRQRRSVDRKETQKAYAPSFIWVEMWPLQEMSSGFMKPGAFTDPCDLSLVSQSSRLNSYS

Relaxin receptor 1 [3] = molecular target: T2, Relaxin receptor 1 (Rattus norvegicus, UniProt Q6R6I6); assay: Agonist activity at rat RXFP1 stably expressed in HEK293 cells assessed as intracellular cAMP accumulation incubated for 30 mins by HTRF assay; type: cell-based
T2 sequence (Q6R6I6 whole entry): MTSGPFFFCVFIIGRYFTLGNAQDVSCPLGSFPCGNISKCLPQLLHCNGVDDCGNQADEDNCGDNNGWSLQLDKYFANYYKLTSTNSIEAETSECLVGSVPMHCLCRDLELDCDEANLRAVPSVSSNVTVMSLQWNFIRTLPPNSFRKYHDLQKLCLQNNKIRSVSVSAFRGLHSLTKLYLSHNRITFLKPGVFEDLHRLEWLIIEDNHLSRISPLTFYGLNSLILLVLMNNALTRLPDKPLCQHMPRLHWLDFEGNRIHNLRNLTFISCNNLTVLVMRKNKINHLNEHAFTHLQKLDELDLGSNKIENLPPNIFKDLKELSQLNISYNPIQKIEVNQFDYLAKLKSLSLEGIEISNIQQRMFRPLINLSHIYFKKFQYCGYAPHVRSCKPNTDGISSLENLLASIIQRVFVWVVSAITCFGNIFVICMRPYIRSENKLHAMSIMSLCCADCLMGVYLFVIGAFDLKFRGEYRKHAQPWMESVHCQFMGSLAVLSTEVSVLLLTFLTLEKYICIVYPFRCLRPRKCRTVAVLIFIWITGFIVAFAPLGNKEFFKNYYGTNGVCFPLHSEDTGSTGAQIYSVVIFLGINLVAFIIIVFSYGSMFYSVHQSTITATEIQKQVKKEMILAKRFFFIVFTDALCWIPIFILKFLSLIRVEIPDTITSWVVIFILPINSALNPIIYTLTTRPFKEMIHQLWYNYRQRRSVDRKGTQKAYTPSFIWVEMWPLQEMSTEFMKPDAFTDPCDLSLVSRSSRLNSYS

[4] = Thermodynamic aqueous solubility of compound in phosphate buffer at pH 7.4 by reversed-phase ultrahigh pressure liquid chromatography; type: physicochemical; settings: phosphate buffer, read-out: Therm_solubility
Relaxin receptor 1 [5] = molecular target: T1, Relaxin receptor 1; assay: Agonist activity at mouse RXFP1 stably expressed in HEK293 cells assessed as intracellular cAMP accumulation incubated for 30 mins by HTRF assay; type: functional, cell-based
[6] = Microsomal stability in mouse liver microsomes assessed as compound remaining measured after 30 mins; type: ADME, Microsome; settings: read-out: Stability
[7] = Microsomal stability in human liver microsomes assessed as compound remaining measured after 30 mins; type: ADME, Microsome; settings: read-out: Stability
[8] = Oral bioavailability in CD-1 mouse at 10 mg/kg; type: ADME, organism-based; settings: in vivo
Rattus norvegicus [9] = assay: Chronotropic effect in isoflurane-anesthetized male naive Sprague-Dawley rat model assessed as effect on heart rate at 0.5 mg/kg/min, iv measured after 60 mins; type: functional, organism-based
Rattus norvegicus [10] = assay: Chronotropic effect in iv dosed isoflurane-anesthetized male naive Sprague-Dawley rat model assessed as increase in heart rate measured after 60 mins; type: functional, organism-based; settings: dose lower […], dose upper 5.0 mg/kg/min
Relaxin receptor 1 [11] = molecular target: T3, Relaxin receptor 1 (Homo sapiens, UniProt Q9HBX9); assay: Agonist activity at human RXFP1
T3 sequence (Q9HBX9 whole entry): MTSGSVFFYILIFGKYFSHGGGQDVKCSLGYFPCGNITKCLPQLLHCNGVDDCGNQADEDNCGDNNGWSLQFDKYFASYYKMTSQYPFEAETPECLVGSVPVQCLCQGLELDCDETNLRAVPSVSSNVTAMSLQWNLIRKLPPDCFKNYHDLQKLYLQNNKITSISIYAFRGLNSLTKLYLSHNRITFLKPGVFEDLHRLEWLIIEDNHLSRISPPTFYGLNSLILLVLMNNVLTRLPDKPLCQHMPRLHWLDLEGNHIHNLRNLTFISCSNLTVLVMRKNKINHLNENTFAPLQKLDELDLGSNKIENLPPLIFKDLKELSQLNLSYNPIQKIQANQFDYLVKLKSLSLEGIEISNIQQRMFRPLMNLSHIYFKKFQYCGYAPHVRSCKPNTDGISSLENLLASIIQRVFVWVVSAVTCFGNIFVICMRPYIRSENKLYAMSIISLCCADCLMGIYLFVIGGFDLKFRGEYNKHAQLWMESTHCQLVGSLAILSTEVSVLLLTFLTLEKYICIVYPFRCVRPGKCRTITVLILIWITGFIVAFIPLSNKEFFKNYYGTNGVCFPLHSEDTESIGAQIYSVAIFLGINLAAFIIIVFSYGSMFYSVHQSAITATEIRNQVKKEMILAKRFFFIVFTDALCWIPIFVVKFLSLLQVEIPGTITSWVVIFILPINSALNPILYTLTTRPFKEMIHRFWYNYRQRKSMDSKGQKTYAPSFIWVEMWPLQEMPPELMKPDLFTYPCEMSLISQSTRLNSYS

SMILES	remaining at 0.5 h [1] [%]	EC50 (Relaxin receptor 1 [2]) [nM]	EC50 (Relaxin receptor 1 [5]) [nM]	remaining at 0.5 h [6] [%]	remaining at 0.5 h [7] [%]	bioavailability [8] [%]	also measured
CNC(=O)OC(C(=O)O)c1ccc(F)c(-c2ccc(OC)c(C(=O)N[C@H]3[C@@H](C(=O)Nc4ccc(F)c(C(F)(F)F)c4)[C@H]4CC[C@@H]3/C4=C\C3CC3)c2)c1 (stereo in doubt; 39)							Activity (Rattus norvegicus [9]): No effect; Activity (Rattus norvegicus [10]): Dose-dependent-effect
COc1cc(F)c(F)cc1C(=O)Nc1ccccc1C(=O)Nc1ccc(F)c(C(F)(F)F)c1							EC50 (Relaxin receptor 1 [11]): 1200 nM
COc1ccc(-c2cncn2C)cc1C(=O)N[C@H]1[C@@H](C(=O)Nc2ccc(F)c(C(F)(F)F)c2)[C@H]2CC[C@@H]1C2=C(C)C			> 10000			29	

Now from value to compound, other results behind:

remaining at 0.5 h [1] [%]	EC50 (Relaxin receptor 1 [2]) [nM]	EC50 (Relaxin receptor 1 [5]) [nM]	remaining at 0.5 h [6] [%]	remaining at 0.5 h [7] [%]	bioavailability [8] [%]	SMILES	also measured
> 90	580	580	> 90	> 90		COc1ccc(-c2cc(C(=O)O)ccc2F)cc1C(=O)N[C@H]1[C@@H](C(=O)Nc2ccc(F)c(C(F)(F)F)c2)[C@H]2CC[C@@H]1/C2=C\c1cnoc1	EC50 (Relaxin receptor 1 [3]): 880 nM; solubility thermodynamic [4]: 15 µg/mL (≈ 22.5 µM)
> 90	500	500	> 90	> 90	36	COc1ccc(-c2cc(C(=O)O)ccc2F)cc1C(=O)N[C@H]1[C@@H](C(=O)Nc2ccc(F)c(C(F)(F)F)c2)[C@H]2CC[C@@H]1/C2=C\C(F)(F)F	
